Literature values in patent US9583325B2, “System and method of delicate membrane condensed phase membrane introduction mass spectrometry (CP-MIMS)” (priority 2013, dated 2017).

Assays:
[1] = SRC Physical Properties Database
[2] = for Log Kow: Table 1, SRC Physical Properties Database

Molecule	Vapour pressure [1]	Log Kow [2]	log Kow ([2]; values given in text of Example 10)
Cc1ccc(C)c(OCCCC(C)(C)C(=O)O)c1 [Gemfibrozil, 5-(2,5-dimethylphenoxy)-2,2-dimethyl-pentanoic acid]	8.1 × 10^−5 Pa	4.30	–
Oc1cc(Cl)ccc1Oc1ccc(Cl)cc1Cl [Triclosan, 5-chloro-2-(2,4-dichlorophenoxy)phenol]	8.6 × 10^−5 Pa	4.76	–
nonylphenol	1.15 Pa	5.76	6.04
CC(C)C1=CC2=CC[C@@H]3[C@](C)(CCC[C@@]3(C)C(=O)O)[C@H]2CC1 [Abietic Acid, Abietic acid]	4.3 × 10^−5 Pa	6.46	–
